From US8258151B2, “3-aminoimidazo [1,2-A] pyridine derivatives as SGLT inhibitors” (Merck Patent GmbH, priority 2006, dated 2012)

Key:
SGLT2 = target: T1, SGLT2 (Homo sapiens, UniProt P31639); assay: SGLT2 activity measurement: 14C-AMG uptake in BHK cells transfected with SGLT2; assay type: cell-based; settings: AMG 2 mM, 37° C., 90 min
T1 construct: expressed in transfected cells
T1 sequence (P31639 1-672): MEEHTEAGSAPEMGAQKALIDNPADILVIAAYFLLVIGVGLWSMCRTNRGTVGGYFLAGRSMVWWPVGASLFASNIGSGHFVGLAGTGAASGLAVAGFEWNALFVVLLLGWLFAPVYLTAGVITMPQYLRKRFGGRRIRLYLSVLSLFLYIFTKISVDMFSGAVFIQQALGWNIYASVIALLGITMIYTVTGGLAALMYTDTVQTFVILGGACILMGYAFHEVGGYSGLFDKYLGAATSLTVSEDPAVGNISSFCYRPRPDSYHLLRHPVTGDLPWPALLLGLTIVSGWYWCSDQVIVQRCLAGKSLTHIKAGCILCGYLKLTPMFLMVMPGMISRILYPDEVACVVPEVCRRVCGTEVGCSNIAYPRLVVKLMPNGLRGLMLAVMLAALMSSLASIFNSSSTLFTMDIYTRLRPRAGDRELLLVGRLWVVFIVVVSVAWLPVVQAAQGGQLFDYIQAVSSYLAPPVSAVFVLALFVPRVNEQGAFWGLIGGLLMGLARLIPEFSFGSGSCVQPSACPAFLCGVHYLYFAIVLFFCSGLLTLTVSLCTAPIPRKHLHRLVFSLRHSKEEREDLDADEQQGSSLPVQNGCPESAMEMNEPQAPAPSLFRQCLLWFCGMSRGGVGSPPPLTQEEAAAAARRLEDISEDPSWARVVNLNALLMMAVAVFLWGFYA
Method in brief: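 BHK21 cells stably expressing human SGLT2 took up 14C-AMG (added as 2 mM solution) ± compound for 90 min at 37 °C in Na+-containing HEPES/Tris buffer, pH 7.4. Uptake was measured by scintillation counting after lysis. Non-specific uptake was defined in sodium-free sucrose buffer.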

SGLT1 = target: T2, SGLT1 (Homo sapiens, UniProt P13866); assay: SGLT1 activity measurement: 14C-AMG uptake in BHK cells transfected with SGLT1; assay type: cell-based; settings: AMG 50 μM, 37° C., 90 min
T2 construct: expressed in transfected cells
T2 sequence (P13866 1-664): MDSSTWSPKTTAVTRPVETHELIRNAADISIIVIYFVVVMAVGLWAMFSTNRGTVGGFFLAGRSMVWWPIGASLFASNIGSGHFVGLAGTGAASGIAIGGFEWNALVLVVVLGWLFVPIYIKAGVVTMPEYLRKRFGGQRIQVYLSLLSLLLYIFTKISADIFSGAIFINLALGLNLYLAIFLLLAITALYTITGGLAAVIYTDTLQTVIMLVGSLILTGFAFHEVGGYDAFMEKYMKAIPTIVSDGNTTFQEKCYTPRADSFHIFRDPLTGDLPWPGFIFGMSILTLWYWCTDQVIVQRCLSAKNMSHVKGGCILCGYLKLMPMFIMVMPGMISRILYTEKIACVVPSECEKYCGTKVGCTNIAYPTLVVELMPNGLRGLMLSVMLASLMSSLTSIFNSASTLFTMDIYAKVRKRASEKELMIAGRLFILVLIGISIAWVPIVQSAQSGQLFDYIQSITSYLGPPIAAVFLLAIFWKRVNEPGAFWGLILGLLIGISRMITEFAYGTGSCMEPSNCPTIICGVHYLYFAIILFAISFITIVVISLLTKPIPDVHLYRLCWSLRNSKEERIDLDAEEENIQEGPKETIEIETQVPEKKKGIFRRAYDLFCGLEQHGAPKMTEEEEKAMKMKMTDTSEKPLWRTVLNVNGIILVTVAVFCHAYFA
Method in brief: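 BHK21 cells stably transfected with human SLC5A1 were incubated with 14C-AMG (added solution at 50 μM) ± compound for 90 min at 37 °C. The buffer was 140 mM NaCl, HEPES/Tris, pH 7.4. Lysed-cell radioactivity was counted by scintillation, and non-specific uptake was measured in sodium-free sucrose buffer.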

IC50 (SGLT2) [µM]	IC50 (SGLT1) [µM]	Structure (SMILES)
0.01 to 1	1 to 10	COc1cc(C)c(-c2nc3ccc(F)cn3c2Nc2c(C)ccc(Cl)c2C)c(OCC(N)=O)c1 [Compound A218, 2-[2-(Aminocarbonylmethoxy)-4-methoxy-6-methylphenyl]-3-(3-chloro-2,6-dimethylphenyl-amino)-6-fluoroimidazo[1,2-a]pyridine]
0.01 to 1	1 to 10	COc1cc(C)c(-c2nc3ccc(F)cn3c2Nc2c(F)cccc2F)c(OCC(N)=O)c1 [Compound A219, 2-[2-(Aminocarbonylmethoxy)-4-methoxy-6-methylphenyl]-3-(2,6-difluorophenylamino)-6-fluoroimidazo[1,2-a]pyridine]
0.01 to 1	1 to 10	COc1cc(C)c(-c2nc3ccc(F)cn3c2Nc2c(C)cc(Cl)cc2C)c(OCC(N)=O)c1 [Compound A222, 2-[2-(Aminocarbonylmethoxy)-4-methoxy-6-methylphenyl]-3-(4-chloro-2,6-dimethylphenyl-amino)-6-fluoroimidazo[1,2-a]pyridine]
1 to 10	> 10	COc1cc(C)c(-c2nc3ccc(F)cn3c2Nc2ccc(F)cc2F)c(OCC(N)=O)c1 [Compound A229, 2-[2-(Aminocarbonylmethoxy)-4-methoxy-6-methylphenyl]-3-(2,4-difluorophenylamino)-6-fluoroimidazo[1,2-a]pyridine]
0.01 to 1	1 to 10	COc1cc(C)c(-c2nc3ccc(F)cn3c2Nc2c(C)cccc2[N+](=O)[O-])c(OCC(N)=O)c1 [Compound A232, 2-[2-(Aminocarbonylmethoxy)-4-methoxy-6-methylphenyl]-3-(2-methyl-6-nitrophenylamino)-6-fluoroimidazo[1,2-a]pyridine]
0.01 to 1	> 10	COc1cc(C)c(-c2nc3ccc(F)cn3c2Nc2c(Br)cccc2Br)c(OCC(N)=O)c1 [Compound A233, 2-[2-(Aminocarbonylmethoxy)-4-methoxy-6-methylphenyl]-3-(2,6-dibromophenylamino)-6-fluoroimidazo[1,2-a]pyridine]
0.01 to 1	1 to 10	COc1cc(C)c(-c2nc3ccc(F)cn3c2Nc2c(C)cc(F)cc2C)c(OCC(N)=O)c1 [Compound A234, 2-[2-(Aminocarbonylmethoxy)-4-methoxy-6-methylphenyl]-3-(2,6-dimethyl-4-fluorophenyl-amino)-6-fluoroimidazo[1,2-a]pyridine]
0.01 to 1	1 to 10	CCc1cc(OC)cc(OCC(N)=O)c1-c1nc2ccc(F)cn2c1Nc1c(C)cc(F)cc1C [Compound A235, 2-[2-(Aminocarbonylmethoxy)-4-methoxy-6-ethylphenyl]-3-(2,6-dimethyl-4-fluorophenyl-amino)-6-fluoroimidazo[1,2-a]pyridine]
0.01 to 1	1 to 10	COc1cc(C)c(-c2nc3ccc(F)cn3c2Nc2c(C)cccc2C(F)(F)F)c(OCC(N)=O)c1 [Compound A236, 2-[2-(Aminocarbonylmethoxy)-4-methoxy-6-methylphenyl]-3-(2-methyl-6-trifluoromethyl-phenylamino)-6-fluoroimidazo[1,2-a]pyridine]
0.01 to 1	1 to 10	COc1cc(C)c(-c2nc3c(F)cc(F)cn3c2Nc2c(C)cccc2C)c(OCC(N)=O)c1 [Compound A237, 2-[2-(Aminocarbonylmethoxy)-4-methoxy-6-methylphenyl]-3-(2,6-dimethylphenylamino)-6,8-difluoroimidazo[1,2-a]pyridine]
0.01 to 1	1 to 10	COc1cc(C)c(-c2nc3ccc(F)cn3c2Nc2c(Br)cc(F)cc2Br)c(OCC(N)=O)c1 [Compound A238, 2-[2-(Aminocarbonylmethoxy)-4-methoxy-6-methylphenyl]-3-(2,6-dibromo-4-fluorophenyl-amino)-6-fluoroimidazo[1,2-a]pyridine]
0.01 to 1	0.01 to 1	COc1cc(C)c(-c2nc3ccc(F)cn3c2Nc2c(Br)cc(C)cc2Br)c(OCC(N)=O)c1 [Compound A239, 2-[2-(Aminocarbonylmethoxy)-4-methoxy-6-methylphenyl]-3-(2,6-dibromo-4-methylphenyl-amino)-6-fluoroimidazo[1,2-a]pyridine]

The remaining lines, values behind:

Structure (SMILES)	IC50 (SGLT2) [µM]	IC50 (SGLT1) [µM]
CCc1cc(OC)cc(OCC(N)=O)c1-c1nc2ccc(F)cn2c1Nc1c(F)cccc1F [Compound A220, 2-[2-(Aminocarbonylmethoxy)-4-methoxy-6-ethylphenyl]-3-(2,6-difluorophenylamino)-6-fluoroimidazo[1,2-a]pyridine]	0.01 to 1	1 to 10
CCc1cc(OC)cc(OCC(N)=O)c1-c1nc2c(F)cc(F)cn2c1Nc1c(C)cccc1C [Compound A221, 2-[2-(Aminocarbonylmethoxy)-4-methoxy-6-ethylphenyl]-3-(2,6-dimethylphenylamino)-6,8-difluoroimidazo[1,2-a]pyridine]	0.01 to 1	1 to 10
COc1cc(C)c(-c2nc3ccccn3c2Nc2c(Cl)cc(F)cc2Cl)c(OCC(N)=O)c1 [Compound A224, 2-[2-(Aminocarbonylmethoxy)-4-methoxy-6-methylphenyl]-3-(4-fluoro-2,6-dichlorophenyl-amino)imidazo[1,2-a]pyridine]	0.01 to 1	1 to 10
COc1cc(C)c(-c2nc3c(F)cc(F)cn3c2Nc2c(Cl)cc(F)cc2Cl)c(OCC(N)=O)c1 [Compound A225, 2-[2-(Aminocarbonylmethoxy)-4-methoxy-6-methylphenyl]-3-(4-fluoro-2,6-dichlorophenyl-amino)-6,8-difluoroimidazo[1,2-a]pyridine]	0.01 to 1	1 to 10
COc1cc(C)c(-c2nc3c(F)cc(F)cn3c2Nc2c(Cl)cccc2Cl)c(OCC(N)=O)c1 [Compound A226, 2-[2-(Aminocarbonylmethoxy)-4-methoxy-6-methylphenyl]-3-(2,6-dichlorophenylamino)-6,8-difluoroimidazo[1,2-a]pyridine]	0.01 to 1	1 to 10
CCc1cc(OC)cc(OCC(N)=O)c1-c1nc2c(F)cc(F)c(N)n2c1Nc1c(C)cccc1C [Compound A227, 2-[2-(Aminocarbonylmethoxy)-4-methoxy-6-ethylphenyl]-3-(2,6-dimethylphenylamino)-5-amino-6,8-difluoroimidazo[1,2-a]pyridine]	0.01 to 1	1 to 10
CCc1cc(OS(=O)(=O)N(C)C)cc(OCC(N)=O)c1-c1nc2ccc(F)cn2c1Nc1c(C)cccc1C [Compound A228, 2-[2-(Aminocarbonylmethoxy)-4-dimethyl-sulfamoyloxy-6-ethylphenyl]-3-(2,6-dimethyl-phenylamino)-6-fluoroimidazo[1,2-a]pyridine]	0.01 to 1	> 10
CCc1cc(OCC(N)=O)cc(OCC(N)=O)c1-c1nc2ccc(F)cn2c1Nc1c(C)cccc1C [Compound A230, 2-[2-(Aminocarbonylmethoxy)-4-(amino-carbonylmethoxy)-6-ethylphenyl]-3-(2,6-dimethylphenylamino)-6-fluoroimidazo[1,2-a]-pyridine]	0.01 to 1	> 10
COc1cc(OCC(N)=O)c(-c2nc3ccc(F)cn3c2Nc2c(C)cccc2C)c(C)c1Cl [Compound A231, 2-[2-(Aminocarbonylmethoxy)-5-chloro-4-methoxy-6-methylphenyl]-3-(2,6-dimethylphenyl-amino)-6-fluoroimidazo[1,2-a]pyridine]	0.01 to 1	1 to 10
CCc1cccc(OCC(N)=O)c1-c1nc2ccc(F)cn2c1Nc1c(C)cccc1C [Compound A240, 2-[2-(Aminocarbonylmethoxy)-6-ethylphenyl]-3-(2,6-dimethylphenylamino)-6-fluoroimidazo-[1,2-a]pyridine]	0.01 to 1	1 to 10
